{
  "source": "patent US8283376B2",
  "about": "“Use of substituted 2-aminotetralins for preventive treatment of parkinson's disease” (UCB Pharma GmbH, priority 2003, dated 2012)",
  "key": {"[1]": {"system": "monkeys (macaques) injected with MPTP", "test": "Progressive MPTP primate model of morbus Parkinson (pilot study)", "assay_type": "in vivo", "procedure": "In the model used, which reflects the progressive course of morbus Parkinson in primates, monkeys (macaques) were injected with subliminal toxic doses of MPTP for several days. Parkinson's symptoms developed in the model over a period of approximately 2 weeks. As soon as a certain level of damage had been reached, rotigotine was injected daily in a formulation that produced a continuous plasma level over 24 hours. The MPTP injections were stopped as soon as the motor activity had been reduced to a certain extent (approximately 5 days later). The behavior of the animals was assessed on a daily basis. […] A group of animals was killed at the end of both the rotigotine administration and the clearance phase, and the condition of the basal ganglia was histologically and biochemically examined."}, "[2]": {"system": "patients with Parkinson's disease", "conditions": "cited from earlier work"}, "[3]": {"system": "neurones of the substantia nigra", "test": "Acute MPTP model (including apoptosis), FluoroJade staining of degenerating neurones", "assay_type": "in vivo", "conditions": "mouse; for No. of degenerating neurones: FluoroJade staining", "procedure": "(§1) The 2-aminotetralins according to the invention, in particular rotigotine, thereby display a neuroprotective effect in a mouse model of Parkinson's disease: Following the acute administration of MPTP, which causes Parkinson's syndrome in both humans and monkeys, the number of the degenerating neurones in the acute phase was measured on the one hand (Table 1) and the functional integrity of the striatum in the sub-acute phase was ascertained on the other by determining the density of the dopamine transporter in the terminal nerve endings (FIGS. 1 and 2).\nFor the purpose of intoxication, 80 mg/kg of the neurotoxin 1-methyl-4-phenyl-1,2,3,6-tetrahydro-pyridine (MPTP) were administered to mice (in doses of 20 mg/kg at two-hour intervals), which led to the degeneration of approximately 50 to 60% of the neurones of the substantia nigra. Approximately 16 hours beforehand, rotigotine was administered in doses of 0.3, 1 or 3 mg/kg respectively, as the so-called “slow-release formulation”. Diffusion and absorption latencies led to rotigotine then being optimally available when MPTP was administered. The animals were killed after 24 hours and their brains fixed. The brain sections were stained with FluoroJade to identify degenerating cells. The immunohistochemical marking of tyrosine-hydroxylase helped to identify dopaminergic neurones."}, "[4]": {"system": "dopamine transporters in the striatum", "test": "Sub-acute MPTP model, dopamine transporter density in the striatum ([125I]PE2I binding)", "assay_type": "in vivo, mice", "procedure": "Groups 1 to 7 were treated as follows: Group 1: untreated control group; Group 2: control group treated with a vehicle solution for rotigotine and MPTP; Group 3: MPTP treatment; Group 4: MPTP treatment plus rotigotine 0.3 mg/kg; Group 5: MPTP treatment plus rotigotine 1.0 mg/kg; Group 6: MPTP treatment plus rotigotine 3.0 mg/kg; Group 7: treatment solely with rotigotine (3.0 mg/kg).\nas §1\nFor the purpose of intoxication, 80 mg/kg of the neurotoxin 1-methyl-4-phenyl-1,2,3,6-tetrahydro-pyridine (MPTP) were administered to mice (in doses of 20 mg/kg at two-hour intervals, groups 3 to 6 in FIGS. 1 and 2), which led to the degeneration of approximately 50 to 60% of the neurones of the substantia nigra (maximum degeneration in group 3 in FIGS. 1 and 2). […]"}},
  "data": [
    {"smiles": "CCCN(CCc1cccs1)C1CCc2c(O)cccc2C1", "note": "(single isomer, unassigned; (-)) [rotigotine, (−)-5,6,7,8-tetrahydro-6-[propyl[2-(2-thienyl)ethyl]amino]-1-naphthol]", "values": [
      {"measurement": "Density of the nerve endings in the striatum", "setting": "[1]; compared to untreated animals", "result": "significantly increased"},
      {"measurement": "Motor activity of the animals", "setting": "[1]; daily rotigotine injections, during treatment and in the following clearance phase", "result": "clearly improved"},
      {"measurement": "Content of pre-pro-enkephalin (basal ganglia)", "setting": "[1]; following treatment and the clearance phase", "result": "showed a tendency towards normalisation"},
      {"measurement": "Dyskinesias", "setting": "[2]; patients with pronounced dyskinesias, Metman et al. (2001)", "result": "improved"},
      {"measurement": "UPDRS (Unified Parkinson's Disease Rating Scale) score", "setting": "[2]; transdermal administration, patients with Parkinson's disease, WO 02/089777", "result": "improvement"},
      {"measurement": "No. of degenerating neurones", "setting": "[3]; MPTP intoxication + rotigotine 0.3 mg/kg", "result": 66.7},
      {"measurement": "No. of degenerating neurones", "setting": "[3]; MPTP intoxication + rotigotine 1.0 mg/kg", "result": 76.8},
      {"measurement": "No. of degenerating neurones", "setting": "[3]; MPTP intoxication + rotigotine 3.0 mg/kg", "result": 34.9},
      {"measurement": "No. of degenerating neurones", "setting": "[3]; MPTP-vehicle + rotigotine 3.0 mg/kg (no MPTP)", "result": 3.8},
      {"measurement": "Staining of tyrosine hydroxylase (dopaminergic neurones)", "setting": "[3]; acute MPTP model, 24 hours, treated vs untreated animals", "result": "did not display any differences between the treated and untreated animals"},
      {"measurement": "Reduction of the number of degenerating neurones following application of rotigotine", "setting": "[3]; acute MPTP model, versus MPTP intoxication", "result": "approximately 50%"},
      {"measurement": "Number of degenerating neurones in the mesencephalon", "setting": "[3]; acute phase after MPTP", "result": "reduced"},
      {"measurement": "Survival of the neurones and their nerve endings (dopamine transporter density in the striatum)", "setting": "[4]; mice, MPTP 80 mg/kg, rotigotine 0.3, 1 or 3 mg/kg daily for 7 days, slow-release formulation", "result": "improved the survival of the neurones and their nerve endings depending on the dosage"},
      {"measurement": "Dopaminergic innervation of the striatum (density of the dopamine transporter)", "setting": "[4]; mouse, sub-acute phase after MPTP", "result": "almost completely maintained or restored"}
    ]}
  ]
}
